Consider 34 molecules from ChEMBL document CHEMBL1144639, “Imidazo[1,2-a]pyridines with potent activity against herpesviruses” (Bioorg Med Chem Lett, 2007).

In general, CC50 refers to the concentration at which the toxic effect on the cells reaches its halfway point. Low readings indicate greater toxicity to the cells, high ones lower toxicity to the cells. For orientation: IC50 means the concentration that inhibits the measured activity by half.

Data set [1] is described as follows: Cytotoxicity against Vero cells. The format is cell-based. The settings on record: chlorocebus sabaeus.
In another data set the test system is Human alphaherpesvirus 1. As to the kind of experiment: Antiviral activity against HSV1 SC16 in Vero cells by capture hybrid method. The format is functional, organism-based. The conditions noted are these: Human alphaherpesvirus 1, SC16, Vero.

Molecules are shown by their SMILES.

As to `Fc1ccc(-c2nc3c(NC4CC4)cccn3c2-c2ccnc(NC3CCCC3)n2)cc1`, in data set [1], it took 33 µM to reach half-maximal cytotoxicity (CC50). Besides, in the data set with Human alphaherpesvirus 1, the midpoint of inhibition, the IC50, lay at 0.51 µM.

Molecule `COCCNc1cccn2c(-c3ccnc(NC4CCCC4)n3)c(-c3ccc(F)cc3)nc12` returned a CC50 in data set [1] above 40 µM. This molecule also showed an IC50 in the data set on Human alphaherpesvirus 1 of 0.26 µM.

In data set [1], `N#Cc1ccc(-c2nc3c(NC4CCCC4)cccn3c2-c2ccnc(NC3CCCC3)n2)cc1` came in with a CC50 above 40 µM. The molecule also showed an IC50 in the data set with Human alphaherpesvirus 1 of 0.32 µM.

As to `Fc1ccc(-c2nc3c(NC4CCCC4)cccn3c2-c2ccnc(NC3CCCC3)n2)cc1`, the CC50 in data set [1] was above 40 µM. Further, the IC50 in the data set with Human alphaherpesvirus 1 came to 0.59 µM.

As for `Fc1ccc(-c2nc3ccc(NC4CCCC4)cn3c2-c2ccnc(NC3CCCC3)n2)cc1`, the CC50 in data set [1] is above 40 µM. The molecule also came in with an IC50 in the data set on Human alphaherpesvirus 1 of 0.33 µM.

Molecule `CCCCNc1cccn2c(-c3ccnc(NC4CCCC4)n3)c(-c3ccc(F)cc3)nc12` yielded a CC50 in data set [1] of 32 µM. In the data set with Human alphaherpesvirus 1, this molecule displayed an IC50 of 0.8 µM.

With `Fc1ccc(-c2nc3c(N4CCCC4)cccn3c2-c2ccnc(NC3CCCC3)n2)cc1`, the CC50 in data set [1] is above 40 µM. This molecule also returned an IC50 with Human alphaherpesvirus 1 of 1.88 µM.

For the molecule `Nc1nc2c(ncn2COCCO)c(=O)[nH]1` [ACYCLOVIR], the CC50 in data set [1] was above 200 µM.

`Fc1ccc(-c2nc3c(NC4CCCC4)cccn3c2-c2ccnc(NC3CCCC3)c2)cc1` had a CC50 in data set [1] above 40 µM.

As to `Fc1ccc(-c2nc3c(Br)cc(Br)cn3c2-c2ccnc(NC3CCCC3)n2)cc1`, the CC50 in data set [1] was above 40 µM. Further, it took 0.8 µM to reach half-maximal inhibition with Human alphaherpesvirus 1 (IC50).

In turn, `c1cc(NC2CCCC2)c2nc(-c3ccc(OCC4CC4)cc3)c(-c3ccnc(NC4CCCC4)n3)n2c1` displayed a CC50 in data set [1] above 40 µM. This molecule gave an IC50 in the data set with Human alphaherpesvirus 1 of 0.27 µM.

Take `COc1ccc(-c2nc3c(NC4CCCC4)cccn3c2-c2ccnc(NC3CCCC3)n2)cc1`: the CC50 in data set [1] is above 10 µM. This molecule displayed an IC50 with Human alphaherpesvirus 1 of 0.48 µM.

`Oc1cccc(-c2nc3c(NC4CCCC4)cccn3c2-c2ccnc(NC3CCCC3)n2)c1` registered a CC50 in data set [1] above 40 µM. The molecule further came in with an IC50 in the data set with Human alphaherpesvirus 1 of 3.13 µM.

In data set [1], `COc1ccc(-c2nc3c(Cl)cccn3c2-c2ccnc(NC3CCCC3)n2)cc1` came in with a CC50 of 30.1 µM. For the same molecule, 1.43 µM corresponded to half-maximal inhibition with Human alphaherpesvirus 1 (IC50).

In the case of `CCCCNc1cc(Br)cn2c(-c3ccnc(NC4CCCC4)n3)c(-c3ccc(F)cc3)nc12`, the CC50 in data set [1] is above 40 µM. In the data set with Human alphaherpesvirus 1, this molecule came in with an IC50 of 0.3 µM.

On to `COc1cccc(-c2nc3c(NC4CCCC4)cccn3c2-c2ccnc(NC3CCCC3)n2)c1`, for which, in data set [1], the CC50 was above 40 µM. The molecule also returned an IC50 in the data set on Human alphaherpesvirus 1 of 0.71 µM.

Take `Cc1cc(Br)cn2c(-c3ccnc(NC4CCCC4)n3)c(-c3ccc(F)cc3)nc12`: the CC50 in data set [1] is above 40 µM. In the data set on Human alphaherpesvirus 1, this molecule had an IC50 of 1.16 µM.

On to `Cc1cccn2c(-c3ccnc(NC4CCCC4)n3)c(-c3ccc(F)cc3)nc12`, for which the CC50 in data set [1] was above 40 µM. The IC50 in the data set on Human alphaherpesvirus 1 came to 1.53 µM.

In the case of `CNc1nccc(-c2c(-c3ccc(F)cc3)nc3c(Cl)cccn23)n1`, the CC50 in data set [1] is above 40 µM. Also, the IC50 with Human alphaherpesvirus 1 was found to be 9.3 µM.

Turning to `Fc1ccc(-c2nc3c(NC4CCCC4)cc(Cl)cn3c2-c2ccnc(NC3CCCC3)n2)cc1`, the CC50 in data set [1] was above 40 µM. In the data set on Human alphaherpesvirus 1, the IC50 is 0.37 µM.

In data set [1], `N#Cc1cccc(-c2nc3c(NC4CCCC4)cccn3c2-c2ccnc(NC3CCCC3)n2)c1` came in with a CC50 above 40 µM. The molecule further gave an IC50 in the data set with Human alphaherpesvirus 1 of 0.36 µM.

`COc1cccc(-c2nc3c(Cl)cccn3c2-c2ccnc(NC3CCCC3)n2)c1`: the CC50 in data set [1] was above 40 µM. For the same molecule, in the data set on Human alphaherpesvirus 1, half-maximal inhibition (IC50) required 1.73 µM.

Molecule `Fc1ccc(-c2nc3c(Cl)cc(Cl)cn3c2-c2ccnc(NC3CCCC3)n2)cc1` had a half-maximal cytotoxic concentration (CC50) in data set [1] above 40 µM. Further, in the data set on Human alphaherpesvirus 1, the IC50 worked out at 1.11 µM.

For the molecule `Oc1ccc(-c2nc3c(NC4CCCC4)cccn3c2-c2ccnc(NC3CCCC3)n2)cc1`, in data set [1], the CC50 is above 40 µM. Further, half-maximal inhibition in the data set on Human alphaherpesvirus 1 (IC50) was put at 3.4 µM.

In turn, `Cc1cc(NC2CCCC2)cn2c(-c3ccnc(NC4CCCC4)n3)c(-c3ccc(F)cc3)nc12` showed a CC50 in data set [1] above 40 µM. Also, in the data set on Human alphaherpesvirus 1, half-maximal inhibition (IC50) was put at 0.15 µM.

On to `Cc1ccc(-c2nc3c(NC4CCCC4)cccn3c2-c2ccnc(NC3CCCC3)n2)cc1`, for which, in data set [1], the CC50 was above 40 µM. In the data set on Human alphaherpesvirus 1, this molecule displayed an IC50 of 1.61 µM.

For the molecule `Fc1ccc(-c2nn3c(NC4CCCC4)cccc3c2-c2ccnc(NC3CCCC3)n2)cc1`, the CC50 in data set [1] was above 160 µM.

In data set [1], `CNc1nccc(-c2c(-c3ccc(F)cc3)nc3c(NC4CCCC4)cccn23)n1` had a CC50 above 40 µM. Moreover, the IC50 in the data set with Human alphaherpesvirus 1 is above 5 µM.

With `Fc1ccc(-c2nc3ccc(Br)cn3c2-c2ccnc(NC3CCCC3)n2)cc1`, the CC50 in data set [1] is above 40 µM. This molecule also yielded an IC50 with Human alphaherpesvirus 1 of 4.08 µM.

`Fc1ccc(-c2nc3c(NC4CCCC4)cc(Br)cn3c2-c2ccnc(NC3CCCC3)n2)cc1` had a CC50 in data set [1] above 40 µM. Moreover, half-maximal inhibition with Human alphaherpesvirus 1 (IC50) required 0.22 µM.

`C=CCOc1ccc(-c2nc3c(NC4CCCC4)cccn3c2-c2ccnc(NC3CCCC3)n2)cc1` returned a CC50 in data set [1] above 40 µM. For the same molecule, in the data set with Human alphaherpesvirus 1, the IC50 was 0.57 µM.

In the case of `Cc1cc(NC2CC2)cn2c(-c3ccnc(NC4CCCC4)n3)c(-c3ccc(F)cc3)nc12`, in data set [1], the CC50 is above 40 µM. In the data set on Human alphaherpesvirus 1, this molecule displayed an IC50 of 0.12 µM.

In data set [1], `Fc1ccc(-c2nc3ccccn3c2-c2ccnc(NC3CCCC3)n2)cc1` came in with a CC50 above 40 µM. The molecule further showed an IC50 in the data set with Human alphaherpesvirus 1 of 3.3 µM.

As for `C=CCOc1cccc(-c2nc3c(NC4CCCC4)cccn3c2-c2ccnc(NC3CCCC3)n2)c1`, the CC50 in data set [1] was above 40 µM. In the data set with Human alphaherpesvirus 1, the IC50 came out at 0.3 µM.
